According to PMC8589421, “Impact of Type II LRRK2 inhibitors on signaling and mitophagy” (Biochemical Journal, 2021):
pIC50: −log10 of the molar value.

Assays:
[1] = tested on: Dundee panel of 140 protein kinases; assay: Kinase profiling; type: biochemical
Excerpt: […] Results for each kinase are presented as the mean kinase activity ±S.D. for an assay undertaken in duplicate relative to a control kinase assay in which the inhibitor was omitted. Abbreviations and assay conditions used for each kinase are available (http://www.kinase-screen.mrc.ac.uk/services/premier-screen).

[2] = tested on: LRRK2 Ser935 phosphorylation, LRRK2[G2019S]; assay: LRRK2 Ser935 phospho-immunoblot in LRRK2[G2019S] knock-in MEFs; type: cell-based, mouse; conditions: Figure 4B
Protocol: Wild-type and homozygous LRRK2 [R1441C] (Jax, stock number: 009346), LRRK2[G2019S] Taconic, (model 13940) and LRRK2 [A2016T] (Jax, stock number: 021828)[7] knock-in MEF cells were isolated from littermate-matched mouse embryos on a C57BL/6J background at day E12.5 as described previously. MEFs were grown in Dulbecco's modified Eagle medium (DMEM GIBCO, #11960-085) containing 10% (by vol) fetal bovine serum (FBS), 2 mM L-glutamine, 100 U/ml penicillin, and […] streptomycin supplemented with non-essential amino acids and 1 mM sodium pyruvate. Human embryonic kidney 293 (HEK293) (#ATCC CRL-1573) and HeLa (#ATCC CCL-2) cells were purchased from American Tissue Culture Collection (ATCC) and cultured in DMEM containing 10% (by vol) FBS, 2 mM L-glutamine, 100 U/ml penicillin, and […] streptomycin. […]
Cells were lysed in an ice-cold lysis buffer containing 50 mM Tris–HCl, pH 7.4, 1% (by vol) Triton X-100, 10% (by vol) glycerol, 150 mM NaCl, 1 mM sodium orthovanadate, 50 mM NaF, 10 mM 2-glycerophosphate, 5 mM sodium pyrophosphate, 1 µg/ml microcystin-LR, and cOmplete EDTA-free protease inhibitor cocktail (Roche, #11836170001). […] Supernatants were quantified by Bradford assay (Bio-Rad Protein Assay Dye Reagent Concentrate #5000006) and samples prepared in 1× lithium dodecyl sulfate sample buffer final concentration (NuPage LDS Sample buffer 4× Invitrogen, #NP0008). […]

[3] = tested on: phosphorylation of Rab12 (Ser105); assay: Rab12 phospho-immunoblot in wild-type MEFs; type: cell-based, mouse
Protocol: Wild-type and homozygous LRRK2 [R1441C] (Jax, stock number: 009346), LRRK2[G2019S] Taconic, (model 13940) and LRRK2 [A2016T] (Jax, stock number: 021828)[7] knock-in MEF cells were isolated from littermate-matched mouse embryos on a C57BL/6J background at day E12.5 as described previously. MEFs were grown in Dulbecco's modified Eagle medium (DMEM GIBCO, #11960-085) containing 10% (by vol) fetal bovine serum (FBS), 2 mM L-glutamine, 100 U/ml penicillin, and […] streptomycin supplemented with non-essential amino acids and 1 mM sodium pyruvate. Human embryonic kidney 293 (HEK293) (#ATCC CRL-1573) and HeLa (#ATCC CCL-2) cells were purchased from American Tissue Culture Collection (ATCC) and cultured in DMEM containing 10% (by vol) FBS, 2 mM L-glutamine, 100 U/ml penicillin, and […] streptomycin. All cells were grown at 37°C, 5% (by vol) CO2 in a humidified atmosphere and regularly tested for mycoplasma contamination.
Inhibitors were dissolved in dimethyl sulfoxide (DMSO) (Sigma, #D2650). The inhibitors were diluted 1000× into cell medium. The equivalent volume of DMSO was added to the minus inhibitor controls. Experiments were performed in six-well plates, 10 cm dishes or 15 cm dishes depending on the amount of cell extract required.
Cells were lysed in an ice-cold lysis buffer containing 50 mM Tris–HCl, pH 7.4, 1% (by vol) Triton X-100, 10% (by vol) glycerol, 150 mM NaCl, 1 mM sodium orthovanadate, 50 mM NaF, 10 mM 2-glycerophosphate, 5 mM sodium pyrophosphate, 1 µg/ml microcystin-LR, and cOmplete EDTA-free protease inhibitor cocktail (Roche, #11836170001). Lysates were incubated on ice for 30 min and clarified by centrifugation at 20 800×g at 4°C for 20 min. Supernatants were quantified by Bradford assay (Bio-Rad Protein Assay Dye Reagent Concentrate #5000006) and samples prepared in 1× lithium dodecyl sulfate sample buffer final concentration (NuPage LDS Sample buffer 4× Invitrogen, #NP0008). When not deployed immediately, lysates were snap-frozen in liquid nitrogen and stored at −80°C until use.
Cell extracts were mixed with a quarter of a volume of NuPage LDS Sample buffer 4× Invitrogen and heated at 95°C for 5 min. […] At the end of electrophoresis, proteins were electrophoretically transferred onto the nitrocellulose membrane (GE Healthcare, Amersham Protran Supported 0.45 µm NC) at 100 V for 90 min on ice in the transfer buffer (48 mM Tris–HCl and 39 mM glycine supplemented with 20% methanol). Transferred membrane was blocked with 5% (w/v) skim milk powder dissolved in TBS-T [20 mM Tris–HCl, pH 7.5, 150 mM NaCl and 0.1% (v/v) Tween 20] at room temperature for 1 h. […]

[4] = tested on: T1, LRRK2 14-3-3 binding; assay: Analysis of 14-3-3 binding in HEK293 cells overexpressing wild-type LRRK2; type: cell-based, human; conditions: 5 μM GZD-824 for 4 h, 1 μM GSK3357679A
T1 construct: host or cells: HEK293
Protocol: This was undertaken as described previously. Briefly, wild-type FLAG-LRRK2 was transiently expressed in HEK293 cells with HA-Rab29. Twenty-four hours post-transfection cells were lysed with lysis buffer and snap frozen. LRRK2 was immunoprecipitated from 4 mg of lysate using 20 μl anti-FLAG-M2 agarose beads (Sigma, #A2220) for 2 h in rotation at +4°C. Immunoprecipitates were washed once with lysis buffer supplemented with 0.5% (by vol) Nonidet P-40 (instead of Triton X-100) and 0.5 M NaCl followed by two washes. Samples were eluted in 2× LDS sample buffer (20 µl per 10 µl of resin) and heated at 70°C for 10 min. After centrifugation through 0.22 µm Spin X filter, the eluted protein was subjected to immunoblotting with the indicated antibodies. An amount of 10 μl of the final reaction mixture was needed for the detection of binding of endogenous 14-3-3 and 1 µl for detection of LRRK2.

Cc1ccc(C(=O)Nc2ccc(CN3CCN(C)CC3)c(C(F)(F)F)c2)cc1C#Cc1cnc2[nH]ncc2c1 [GZD-824]
number of the 140 kinases assayed suppressed by over 80% ([1]; 0.1 μM inhibitor): 22
number of the 140 kinases assayed suppressed by over 80% ([1]; 1 μM inhibitor): 43
effect on Ser935 phosphorylation in LRRK2[G2019S] cells [2]: did not impact Ser935 phosphorylation
Rab12 phosphorylation level after treatment ([3]; 1 μM, 2 h): almost background levels
Rab12 phosphorylation over 24 h time course ([3]; 1 μM, 24 h): remained suppressed
time to 50% reduction of Rab12 phosphorylation ([3]; 1 μM, Figure 2C): ~10 min
pIC50 ([3]; Mus musculus, 2 h, Figure 2A, read-out: IC50 inhibition of Rab12 phosphorylation): ~6.52
impact on 14-3-3 binding to LRRK2 [4]: no significant impact
